Measured values taken from patent US20230416329A1, “A PEPTIDE WITH DISULFIDE BONDS AND INHIBITORY ACTIVITY AGAINST SERINE PROTEASES, DERIVED HYBRID PEPTIDES THEREOF, AND USES THEREOF” (INSTITUTE OF MATERIA MEDICA , CHINESE ACADEMY OF MEDICAL …, priority 2020, published 2023).
One block for each compound: values may come before it. Bridge positions count the residues as written; N and C are the ends. Square brackets hold non-standard residues; d marks the D form. Peptide text beside a SMILES is read from it. Hyp = O=C(O)[C@@H]1C[C@@H](O)CN1

Tests used:
[1] = biological target: DPP-IV (Homo sapiens, UniProt P27487); test: Tolerance of GLP-1 and its analogues to DPP-IV (RP-HPLC remaining peak area); format: in vitro ADME; conditions: peptide 25 μM, DPP-IV 0.5 ng/μL, 37° C.
Experimental: Mix by centrifugation at 8000 rpm for 30 seconds.
(2) Arrange a certain volume of 0.005 μg/μL DPP-IV solution in another sterile EP.

[2] = biological target: chymotrypsin (Bos taurus, UniProt P00766); test: in vitro; conditions: isolated enzyme chymotrypsin, pH 7.8, Remaining peak area (%)/chymotrypsin
Summary of the method: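 Peptide and 0.05 μg/μL chymotrypsin were preincubated at 37 °C for 5 min, then mixed. Aliquots taken from 1.5 up to 60.0 min were quenched with 10% TFA, and remaining peptide was measured as RP-HPLC peak area.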

[3] = Stability of GLP-1 and its analogues in human serum; conditions: 25% (v/v) human serum
[4] = biological target: porcine pancreatic elastase (Sus scrofa, UniProt P00772); test: Elastase inhibitory activity of peptides (AAApNA hydrolysis; IC50, Ki, residual activity); format: biochemical; conditions: for IC50: elastase 0.5 μM, AAApNA 1 mM; for Ki: read-out: Ki
Summary of the method: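 Porcine pancreatic elastase, 0.5 μM final, was preincubated with peptide for 10 min at 37° C in 20 mM CaCl2, 50 mM Tris-HCl pH 8.0. AAApNA (1 mM final) was then added for 60 min and A405 read. Residual activity gave IC50, converted to Ki via IC50/(1+S/Km) using measured Km.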

Chain of porcine pancreatic elastase (P00772 27-266): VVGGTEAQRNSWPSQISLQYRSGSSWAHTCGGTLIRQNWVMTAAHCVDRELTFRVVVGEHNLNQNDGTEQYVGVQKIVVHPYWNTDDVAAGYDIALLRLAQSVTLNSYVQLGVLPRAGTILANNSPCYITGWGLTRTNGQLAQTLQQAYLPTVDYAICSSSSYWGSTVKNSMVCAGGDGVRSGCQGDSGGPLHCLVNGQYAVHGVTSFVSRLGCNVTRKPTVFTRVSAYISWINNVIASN
Chain of DPP-IV (P27487 whole entry, species assumed): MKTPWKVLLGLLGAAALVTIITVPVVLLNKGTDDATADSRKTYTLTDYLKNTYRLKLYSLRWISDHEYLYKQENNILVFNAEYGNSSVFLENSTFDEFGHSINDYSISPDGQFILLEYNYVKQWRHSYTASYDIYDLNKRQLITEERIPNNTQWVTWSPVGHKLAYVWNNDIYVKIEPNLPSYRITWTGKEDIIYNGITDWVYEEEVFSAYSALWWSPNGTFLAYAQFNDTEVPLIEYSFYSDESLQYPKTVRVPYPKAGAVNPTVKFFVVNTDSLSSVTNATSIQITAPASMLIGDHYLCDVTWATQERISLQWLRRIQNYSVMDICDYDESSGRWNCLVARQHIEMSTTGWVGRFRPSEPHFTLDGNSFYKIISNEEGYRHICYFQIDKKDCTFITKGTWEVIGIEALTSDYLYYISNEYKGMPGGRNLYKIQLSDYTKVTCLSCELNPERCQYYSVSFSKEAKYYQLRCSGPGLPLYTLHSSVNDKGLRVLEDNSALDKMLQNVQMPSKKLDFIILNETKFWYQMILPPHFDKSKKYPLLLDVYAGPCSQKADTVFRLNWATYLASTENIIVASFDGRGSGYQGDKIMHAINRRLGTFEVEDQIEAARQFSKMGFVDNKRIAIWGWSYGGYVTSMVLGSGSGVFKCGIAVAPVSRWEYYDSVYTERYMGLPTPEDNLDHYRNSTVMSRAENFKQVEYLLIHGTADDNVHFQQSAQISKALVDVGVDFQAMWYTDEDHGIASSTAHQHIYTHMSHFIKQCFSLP

Compound: CC[C@H](C)[C@H](NC(=O)[C@H](Cc1ccccc1)NC(=O)[C@H](CCC(=O)O)NC(=O)[C@H](CCCCN)NC(=O)[C@H](C)NC(=O)[C@H](C)NC(=O)[C@H](CCC(N)=O)NC(=O)CNC(=O)[C@H](CCC(=O)O)NC(=O)[C@H](CC(C)C)NC(=O)[C@H](Cc1ccc(O)cc1)NC(=O)[C@H](CO)NC(=O)[C@H](CO)NC(=O)[C@@H](NC(=O)[C@H](CC(=O)O)NC(=O)[C@H](CO)NC(=O)[C@@H](NC(=O)[C@H](Cc1ccccc1)NC(=O)[C@@H](NC(=O)CNC(=O)[C@H](CCC(=O)O)NC(=O)[C@H](C)NC(=O)[C@H](Cc1c[nH]cn1)NC(=O)CNC(=O)CNC(=O)[C@@H](NC(=O)[C@@H]1CCCN1C(=O)[C@@H](NC(=O)CNC(=O)CNC(=O)[C@H](Cc1ccc(O)cc1)NC(=O)[C@@H]1CSSC[C@H](NC(=O)[C@@H](N)CO)C(=O)N[C@@H]([C@@H](C)O)C(=O)N[C@@H](Cc2ccc(O)cc2)C(=O)N[C@@H](CO)C(=O)N[C@@H]([C@@H](C)CC)C(=O)N2CCC[C@H]2C(=O)N2CCC[C@H]2C(=O)N[C@@H](CCC(N)=O)C(=O)N1)[C@@H](C)CC)[C@@H](C)CC)[C@@H](C)O)[C@@H](C)O)C(C)C)C(=O)N[C@@H](C)C(=O)N[C@@H](Cc1c[nH]c2ccccc12)C(=O)N[C@@H](CC(C)C)C(=O)N[C@H](C(=O)N[C@@H](CCCCN)C(=O)NCC(=O)N[C@@H](CCCNC(=N)N)C(=O)NCC(=O)NCC(=O)N[C@@H](CCCCN)C(=O)O)C(C)C [CH4-D-GLP-1]
Remaining peak area (%)/DPP-IV ([1]; 0.0 h): 100.0 ± 0.0% | remaining at 0.5 h, 25 μM ([1]; isolated DPP-IV enzyme in buffer, pH 8, 0.5 h): 88.5 ± 0.7% | remaining at 2 h, 25 μM ([1]; isolated DPP-IV enzyme in buffer, pH 8, 2.0 h): 90 ± 0.9% | remaining at 4 h, 25 μM ([1]; isolated DPP-IV enzyme in buffer, pH 8, 4.0 h): 92.4 ± 0.5% | remaining at 8 h, 25 μM ([1]; isolated DPP-IV enzyme in buffer, pH 8, 8.0 h): 85.1 ± 0.9% | remaining at 12 h, 25 μM ([1]; isolated DPP-IV enzyme in buffer, pH 8, 12.0 h): 88.6 ± 3.7% | remaining at 0.025 h, 60 μM [2]: 84.9 ± 1.6% | remaining at 0.05 h, 60 μM [2]: 89.6 ± 4.2% | remaining at 0.075 h, 60 μM [2]: 83.6 ± 0.5% | remaining at 0.1 h, 60 μM [2]: 86.2 ± 0.7% | remaining at 0.15 h, 60 μM [2]: 81.1 ± 4.7% | remaining at 0.25 h, 60 μM [2]: 83.3 ± 1.4% | remaining at 0.5 h, 60 μM [2]: 84.5 ± 3.7% | remaining at 1 h, 60 μM [2]: 78.6 ± 2% | Remaining peak area (%)/human serum ([3]; 0.0 h, peptide 0.03 mM, 37° C.): 100.0 ± 0.0% | remaining at 0.5 h, 0.03 mM ([3]; human, pH 7): 72.3 ± 0.5% | remaining at 2 h, 0.03 mM ([3]; human, pH 7): 34 ± 0.2% | remaining at 4 h, 0.03 mM ([3]; human, pH 7): 16.6 ± 0.8% | remaining at 8 h, 0.03 mM ([3]; human, pH 7): 4.4 ± 0.2% | remaining at 12 h, 0.03 mM ([3]; human, pH 7): 1.8 ± 0.1%

Compound: CC[C@H](C)[C@@H]1NC(=O)CNC(=O)[C@@H](N)CSSC[C@@H](C(=O)N[C@@H](CCC(N)=O)C(=O)O)NC(=O)[C@H]([C@@H](C)CC)NC(=O)[C@@H]2CCCN2C(=O)[C@@H]2CCCN2C(=O)[C@H]([C@@H](C)CC)NC(=O)[C@H](CO)NC(=O)[C@H](C)NC(=O)[C@H]([C@@H](C)O)NC(=O)[C@H](CCCCN)NC1=O [EC42] (H-CGIKTASIPPICQ-OH; disulfide 1-12)
IC50 [4]: > 50000 nM

Compound: CC[C@H](C)[C@@H]1NC(=O)[C@@H]2CCCN2C(=O)[C@@H](N)CSSC[C@@H](C(=O)N[C@@H](CCC(N)=O)C(=O)O)NC(=O)[C@H]([C@@H](C)CC)NC(=O)[C@@H]2CCCN2C(=O)[C@@H]2CCCN2C(=O)[C@H]([C@@H](C)CC)NC(=O)[C@H](CO)NC(=O)[C@H](C)NC(=O)[C@H]([C@@H](C)O)NC(=O)[C@H](C)NC1=O [EC44] (H-CPIATASIPPICQ-OH; disulfide 1-12)
IC50 [4]: > 50000 nM

Compound: CC[C@H](C)[C@@H]1NC(=O)[C@@H]2C[C@@H](O)CN2C(=O)[C@@H](N)CSSC[C@@H](C(=O)N[C@@H](CCC(N)=O)C(=O)O)NC(=O)[C@H]([C@@H](C)CC)NC(=O)[C@@H]2CCCN2C(=O)[C@@H]2CCCN2C(=O)[C@H]([C@@H](C)CC)NC(=O)[C@H](CO)NC(=O)[C@H](C)NC(=O)[C@H]([C@@H](C)O)NC(=O)[C@H](C)NC1=O [EC46] (H-C[Hyp]IATASIPPICQ-OH; disulfide 1-12)
IC50 [4]: > 50000 nM

The next lines start with the values.

IC50 [4]: 400 nM | Ki [4]: 110 nM
Compound: CC[C@H](C)[C@H](N)C(=O)N[C@H]1CSSC[C@@H](C(=O)N[C@@H](CCC(N)=O)C(=O)O)NC(=O)[C@H]([C@@H](C)CC)NC(=O)[C@@H]2CCCN2C(=O)[C@@H]2C[C@@H](O)CN2C(=O)[C@H]([C@@H](C)CC)NC(=O)[C@H](CO)NC(=O)[C@H](C)NC(=O)[C@H]([C@@H](C)O)NC1=O [EC47, Ile-Cys-Thr-Ala-Ser-Ile-Hyp-Pro-Ile-Cys-Gln] (H-ICTASI[Hyp]PICQ-OH; disulfide 2-10; C-terminus assumed)

Ki [4]: 280 nM
Compound: CC[C@H](C)[C@@H]1NC(=O)[C@H](CO)NC(=O)[C@H](C)NC(=O)[C@H]([C@@H](C)O)NC(=O)[C@@H](NC(=O)[C@H](CC(C)C)NC(=O)CNC(=O)CNC(=O)[C@@H](NC(=O)[C@@H]2CCCN2C(=O)[C@@H]2CCCN2C(=O)[C@@H](NC(=O)[C@H](CC(=O)O)NC(=O)[C@H](C)NC(=O)CNC(=O)[C@@H](N)CCC(N)=O)[C@@H](C)O)C(C)C)CSSC[C@@H](C(=O)N[C@@H](Cc2ccc(O)cc2)C(=O)O)NC(=O)[C@H](CCC(N)=O)NC(=O)[C@@H]2CCCN2C(=O)[C@@H]2CCCN2C1=O [EC49] (H-QGADTPPVGGLCTASIPPQCY-OH; disulfide 12-20; N-terminus and C-terminus assumed)

Ki [4]: 280 nM
Compound: CC[C@H](C)[C@@H]1NC(=O)[C@H](CO)NC(=O)[C@H](C)NC(=O)[C@H]([C@@H](C)O)NC(=O)[C@@H](NC(=O)[C@H](CC(C)C)NC(=O)CNC(=O)CNC(=O)[C@H](CC(=O)O)NC(=O)[C@H](CCC(=O)O)NC(=O)[C@@H](NC(=O)[C@H](C)NC(=O)[C@H](CC(N)=O)NC(=O)CNC(=O)[C@H](CC(N)=O)NC(=O)[C@@H](N)CO)C(C)C)CSSC[C@@H](C(=O)N[C@@H](Cc2ccc(O)cc2)C(=O)O)NC(=O)[C@H](CCC(N)=O)NC(=O)[C@@H]2CCCN2C(=O)[C@@H]2CCCN2C1=O [EC50] (H-SNGNAVEDGGLCTASIPPQCY-OH; disulfide 12-20; N-terminus and C-terminus assumed)
